Measured values taken from PubChem BioAssay (NCI).
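Where inhibition never reached the appropriate level, the endpoint shown equals the highest concentration tested. Otherwise, values were interpolated linearly from a five-concentration, 48-hour dose response in 96-well plates. Abbreviation: GI50, concentration required for 50% inhibition of growth. At the TGI there is no net growth.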

Legend:
Test in all cases: NCI-60 cell line screen, 48 h
OVCAR-5 ovarian = test system: OVCAR-5 ovarian
SF-539 CNS = test system: SF-539 CNS
A549 NSCLC = test system: A549 NSCLC
OVCAR-8 ovarian = test system: OVCAR-8 ovarian
OVCAR-3 ovarian = test system: OVCAR-3 ovarian
T-47D breast = test system: T-47D breast
SK-MEL-5 melanoma = test system: SK-MEL-5 melanoma
NCI/ADR-RES ovarian = test system: NCI/ADR-RES ovarian
RXF 393 renal = test system: RXF 393 renal
K-562 leukemia = test system: K-562 leukemia

SMILES | GI50 (OVCAR-5 ovarian) [µM] | TGI (OVCAR-5 ovarian) [µM] | GI50 (SF-539 CNS) [µM] | TGI (SF-539 CNS) [µM] | GI50 (A549 NSCLC) [µM] | TGI (A549 NSCLC) [µM] | GI50 (OVCAR-8 ovarian) [µM] | TGI (OVCAR-8 ovarian) [µM] | GI50 (OVCAR-3 ovarian) [µM] | TGI (OVCAR-3 ovarian) [µM] | GI50 (T-47D breast) [µM] | TGI (T-47D breast) [µM] | GI50 (SK-MEL-5 melanoma) [µM] | TGI (SK-MEL-5 melanoma) [µM] | GI50 (NCI/ADR-RES ovarian) [µM] | TGI (NCI/ADR-RES ovarian) [µM] | GI50 (RXF 393 renal) [µM] | TGI (RXF 393 renal) [µM] | GI50 (K-562 leukemia) [nM] | TGI (K-562 leukemia) [µM]
COc1ccc2c(c1)C(=O)/C(=C/c1cccc(OCC(=O)Nc3nc(C)c(C)s3)c1)O2 | 0.205 | 1.14 | 0.052 | 0.0965 | 0.19 | 2.41 | 0.647 | 12.9 | 0.0179 | 0.0366 | 1.99 | 4.65 | 0.886 | 2.81 | 3.76 | 29.6 | 0.0214 | 0.0418 | 240 | 
COc1ccc(-c2cnnn2-c2nonc2-n2cccc2)cc1OC | 17.8 | > 100 | 3.44 | 22.2 | 4.15 | > 100 | 5.29 | > 100 | 3.97 | > 100 | 3.79 | > 100 | 4.6 | 21.1 | 2.02 | 5.99 | 2.98 | 40.2 | 1370 | > 100
CCCCCCCCCc1ccc(OCCOCCOCCOCCOCCOCCOCCOCCOCCO)cc1 | 1.1 | 3.54 | 0.949 | 2.67 | 0.414 | 3.69 | 0.231 | 2.71 | 0.428 | 2.29 | 0.224 | 2.75 | 0.136 | 0.643 | 0.268 | 3.94 | 1.03 | 3.37 | 332 | 7.27
N=c1ccc2nc3ccc(N)cc3sc-2c1 | 7.62 | 24.3 | 3.21 | 8.62 | 3.43 | > 100 | 3.69 | 14 | 3.21 | 13.7 | 4.05 | 18.8 | 1.7 | 3.53 | 2.53 | 10.7 | 12.2 | 28.2 | 4470 | 74.9
Cn1c(=O)n(C)c2cc(CNCCNc3ccnc4cc(Cl)ccc34)ccc21 | 20.3 | 65.4 | 14.7 | 29.4 | 50.3 | > 100 | 38.2 | > 100 | 30.8 | > 100 | 28.3 | 86.5 | 16.5 | 30.3 | > 100 | > 100 | 12.6 | 31.2 | 6990 | 39.4
CC(=O)c1ccc2c(c1)N(CCCN1CCN(CCO)CC1)c1ccccc1S2 | 2.29 | 9.78 | 1.73 | 3.55 | 3.3 | 11.5 | 3.34 | 10.5 | 2.85 | 8.9 | 1.94 | 5.2 | 1.72 | 3.14 | 3.05 | 12.9 | 2.09 | 5.95 | 2520 | > 23
CCCN(CCC)c1ccc(C=O)c(Cl)c1 | 0.432 | 2.33 | 23.8 | > 65 | 7.66 | > 100 | 28.4 | > 100 | 1.67 | 6.7 | 0.375 | 5.1 | 14.8 | 28.6 | 29 | > 100 | 14.2 | 33.6 | 26400 | > 100
C=CC(C)(C)n1cc(C2=C(O)C(=O)C(c3cn(C(C)(C)C=C)c4ccccc34)=C(O)C2=O)c2ccccc21 |  | 4.45 |  | 4.11 |  | 14.6 |  | 13.6 |  | 4.48 |  | 23.1 |  | 4.88 |  | 6.72 |  | 3.87 |  | > 100
O=C(c1ccc2ccccc2c1)c1nc2cc(F)ccc2[n+]([O-])c1C(F)(F)F | 23.1 | 48.9 | 22 | 48.9 | 20.6 | 53.7 | 16.7 | 32.4 | 16.3 | 29.9 | 27.6 | > 100 | 24.9 | 67.6 | 21.2 | 42.8 | 14.6 | 30.8 | 2800 | 15.4
COc1ccc(C2=NC(=O)NC2c2ccc(OC)cc2)cc1 (centres undefined) | 25.9 | > 100 | 12.6 | 54.8 | 11.8 | > 100 | 29.6 | > 100 | 10.8 | 35.3 | 6.9 | > 100 | 3.29 | 14.2 | 4.38 | 58.5 | 12 | 51.5 | 2800 | 20.8
CC(NC(=O)Cc1ccc(C(F)(F)P(=O)(OCc2ccc([N+](=O)[O-])o2)N(C)CCCCCl)cc1)c1ccc(OCC2CCCCC2)c(C(N)=O)c1 (centres undefined) | 15.6 | 33.1 | 6.33 | 13.4 | 14.5 | 58.7 | 12.1 | 41.9 | 2.31 | 9.82 | 4.33 | 15 | 6.77 | 15.5 | 6.51 | > 93.4 | 4.36 | 9.97 | 4500 | 17.9
CN(Cc1ccc(F)cc1)c1ccc(CO)c(Cl)c1 | 0.426 | 2.37 | 40.7 | > 100 | 5.54 | > 60.1 | 20.7 | > 100 | 3.55 | 15 | 0.667 | 4.16 | 8.6 | 22.8 | 17.7 | > 64.3 | 9.12 | > 59 | 7990 | > 100
C/C(=C(/c1ccccc1)c1ccc(OCC(O)CNCCN2CCOCC2)cc1)c1ccccc1 (centres undefined) | 6.48 | 20.5 | 1.63 | 2.99 | 3.99 | 15.6 | 3.74 | 15.1 | 2.43 | 7.17 | 3.49 | 11.3 | 1.77 | 3.19 | 4.92 | 17.2 | 1.91 | 4.22 | 1750 | 4.26
c1ccc(-c2nc3n(c2-c2ccc4c(c2)OCO4)CCC3)nc1 | 5.03 | > 25 | 6.38 | 21.6 | 5.88 | > 25 | 6.34 | > 25 | 7.69 | > 22.6 | 7.99 | > 23.4 | 2.05 | 8.86 | 0.573 | 9.59 | 2.45 | > 17.5 | 5490 | > 25
